Laboratory results from patent US20030181390A1, “Amino acid conjugates providing for sustained systemic concentrations of GABA analogues” (priority 2002, published 2003).
Like-named read-outs stand apart in the source and are kept apart here.

Tests used:
[1] = monkey; for AUC for gabapentin (AUC G) / Cmax for gabapentin (Cmax G) / increase in gabapentin exposure (as measured by AUC) for a 7.5-fold increase in dose: oral; for increase in gabapentin exposure (as measured by AUC) for a 7.5-fold increase in dose: 10 to 75 mg-eq/kg
Protocol: (§6) The prodrug was administered orally to four adult male monkeys (approximate body weight of 6.5 kg) via an oral nasogastric tubeas solutions in water or PEG 400. The dose was 10 or 75 mg-equivalents of gabapentin per kg body weight. Animals were fasted overnight before the study and for 4 hours post-dosing. Blood samples (1.0 mL) were obtained via femoral or cephalic venipuncture at intervals over 48 hours after oral dosing. Blood was processed immediately for plasma and plasma was frozen at −80° C. until analyzed. […] Oral bioavailability was determined by comparison of area under the gabapentin concentration versus time curve (AUC) following oral administration of prodrug or intravenous administration of an equimolar dose of gabapentin hydrochloride.

[2] = rat; for fraction of prodrug absorbed intact following oral administration: oral and i.v. dosing of prodrug
[3] = Caco-2 homogenate S9 stability / release of gabapentin; assay type: in vitro ADME; details: incubation with Caco-2 homogenate for 1 hour
Protocol: The stability of aminoacyl-gabapentin conjugates was evaluated by incubating the conjugates in the various tissue and enzyme-containing preparations listed in Table 1 below.
Tissue homogenates and plasma samples were obtained from commercial sources (Pel-Freez Biologicals, Rogers, Ariz., and GenTest Corporation, Woburn, Mass.). Stability of prodrugs toward the specific enzyme aminopeptidase was also evaluated by incubation with the purified enzyme. Experimental conditions used for the in vitro studies were as follows. Each preparation was incubated with test compound at 37° C. for one hour. Aliquots (50 μL) were removed at 0, 30, and 60 min and quenched with 0.1% trifluoroacetic acid in acetonitrile. Samples were then centrifuged and analyzed for the presence of prodrug and released gabapentin by LC/MS/MS as described below.
Concentrations of prodrug or gabapentin in tissue extracts were determined by direct injection onto an API 2000 LC/MS/MS equipped with an Agilent 1100 binary pump and autosampler. Separation was achieved using a 3.5 μm Zorbax Ellipse XDB-C8 4.4×150 mm column heated to 45° C. during the analysis. The mobile phases were: 0.1% formic acid in water (A) and 0.1% formic acid in acetonitrile (B). The gradient condition was: 2% B for 0.5 min, increasing to 90% B in 2.0 min, maintained for 2.5 min and returning to 2% B for 2 min. A TurboIonSpray source was used on the API 2000. The analysis was performed in the positive ion mode and MRM transitions of 172.0/137.2 were used in the analysis of gabapentin (2). Ten microliters of the sample extracts were injected. Peaks were integrated using Analyst quantitation software. The method was linear for (2) over the concentration range 0.002 to 2.5 μg/mL respectively.
The stability of gabapentin-containing prodrugs to Caco-2 homogenates was evaluated as follows:
Caco-2 Homogenate S9 Stability: Caco-2 cells were grown for 21 days prior to harvesting. Culture medium was removed and cell monolayers were rinsed and scraped off into ice-cold 10 mM sodium phosphate/0.15 M potassium chloride, pH 7.4. Cells were lysed by sonication at 4° C. using a probe sonicator. Lysed cells were then transferred into 1.5 mL centrifuge vials and centrifuged at 9000 g for 20 min at 4° C. The resulting supernatant (Caco-2 cell homogenate S9 fraction) was aliquoted into 0.5 mL vials and stored at −80° C. until used.
For stability studies, prodrug (5 μM) was incubated in Caco-2 homogenate S9 fraction (0.5 mg protein per mL) for 60 min at 37° C. Concentrations of intact prodrug and released drug were determined at zero time and 60 minutes using LC/MS/MS.

[4] = in vivo; details: rat; for Cmax for prodrug (Cmax PD) in plasma: single oral dose of prodrug, 25 mg-equivalents of gabapentin per kg
Protocol: The pharmacokinetics of the prodrugs prepared in Examples 1 and 3 were examined in rats. […] Animals were fasted overnight prior to dosing and until 4 hours post-dosing. Serial blood samples were obtained over 24 hours following dosing and blood was processed for plasma by centrifugation. Plasma samples were stored at −80° C. until analyzed.
Plasma (50 μL) was precipitated by addition of […] of methanol and supernatant was injected directly onto the LC/MS/MS system. […] Following oral administration of gabapentin prodrugs, concentrations of prodrug and gabapentin in plasma were monitored over 24 hours.

[5] = monkey, sodium salt in water, 10 mg-equivalents of gabapentin per kg
[6] = rat, intracolonic, sodium salt, dose equivalent to 25 mg of gabapentin per kg
Protocol: Rats were obtained commercially and were pre-cannulated in the both the ascending colon and the jugular vein. Animals were conscious at the time of the experiment. All animals were fasted overnight and until 4 hours post-dosing. […] Blood samples (0.5 mL) were obtained from the jugular cannula at intervals over 8 hours and were quenched immediately by addition of acetonitrile/methanol to prevent further conversion of the prodrug.

[7] = in vivo; details: male, monkey, plasma, po
Protocol: as §6

[8] = man, cited from earlier work
[9] = system: PEPT1; details: tested at 1 mM on oocytes expressing PEPT1; normalised to 1 mM glycyl-sarcosine
Protocol: (§1) Rat and human PEPT1 and PEPT2 expressing CHO cell lines were prepared as described in PCT Application WO01/20331. Gabapentin-containing dipeptides were evaluated for interaction with the peptide transporters using a radiolabeled substrate uptake assay in a competitive inhibition format, as described in PCT Application WO01/20331. Transport-induced currents were also measured in Xenopus oocytes transfected with rat and human PEPT1 and PEPT2.
(§2) (b) Analysis of Electrogenic Transport in Xenopus oocytes
(§3) RNA preparation: Rat and human PEPT1 and PEPT2 transporter cDNAs were subcloned into a modified pGEM plasmid that contains 5′ and 3′ untranslated sequences from the Xenopus β-actin gene. These sequences increase RNA stability and protein expression. Plasmid cDNA was linearized and used as template for in vitro transcription (Epicentre Technologies transcription kit, 4:1 methylated:non-methylated GTP).
(§4) Xenopus oocyte isolation. Xenopus laevis frogs were anesthetized by immersion in Tricaine ([…] in deionized water) for 15 min. […]
(§5) Electrophysiology measurements. Transport currents were measured 2-14 days after injection, using a standard two-electrode electrophysiology set-up (Geneclamp 500 amplifier, Digidata 1320/PCLAMP software and ADInstruments hardware and software were used for signal acquisition).

[10] = system: PEPT2; details: tested at 1 mM on oocytes expressing PEPT2; normalised to 1 mM glycyl-sarcosine
Protocol: as §1, §2, §3, §4, §5

[11] = male, Sprague-Dawley, plasma, po, 25 mg/kg

N[C@@H](CO)C(=O)NCC1(CC(=O)O)CCCCC1 [1ax, L-Serine-Gabapentin]
oral bioavailability as gabapentin (F) ([1]; 10 mg-eq/kg): 41.5±12.2%
oral bioavailability as gabapentin (F) ([1]; 75 mg-eq/kg): 28.1±1.1%
AUC for gabapentin (AUC G) ([1]; 10 mg-eq/kg): 24700 ± 7300 ng·h/mL
Cmax for gabapentin (Cmax G) ([1]; 10 mg-eq/kg): 3700 ± 1100 ng/mL
AUC for gabapentin (AUC G) ([1]; 75 mg-eq/kg): 125000 ± 5000 ng·h/mL
Cmax for gabapentin (Cmax G) ([1]; 75 mg-eq/kg): 14500 ± 1600 ng/mL
increase in gabapentin exposure (as measured by AUC) for a 7.5-fold increase in dose [1]: 5.1 fold
fraction of prodrug absorbed intact following oral administration [2]: 15-20%

N#Cc1ccc(C[C@H](N)C(=O)NCC2(CC(=O)O)CCCCC2)cc1 [1am, L-4-Cyanophenylalanine-Gabapentin]
% of prodrug surviving intact [3]: 90%
Cmax for prodrug (Cmax PD) in plasma [4]: 22400 ng/mL

NC(Cc1ccc(F)cc1F)C(=O)NCC1(CC(=O)O)CCCCC1 [1ap, D, L-2,4-Difluorophenylalanine-Gabapentin]
% of prodrug surviving intact [3]: 90%
Cmax for prodrug (Cmax PD) in plasma [4]: 278000 ng/mL

N[C@@H](Cc1cc(F)cc(F)c1)C(=O)NCC1(CC(=O)O)CCCCC1 [1ao, L-3,5-Difluorophenylalanine-Gabapentin]
% of prodrug surviving intact [3]: 48%
Cmax for prodrug (Cmax PD) in plasma [4]: 2900 ng/mL

N[C@@H](Cc1ccc(Br)cc1)C(=O)NCC1(CC(=O)O)CCCCC1 [1ah, L-4-Bromophenylalanine-Gabapentin]
AUC for gabapentin (AUC G) ([5]; oral): 29100 ± 3500 ng·h/mL
AUC for prodrug (AUC PD) ([5]; oral): 18900 ± 6500 ng·h/mL
Cmax for gabapentin (Cmax G) ([5]; oral): 3800 ± 1100 ng/mL
CmaxPH (Cmax for prodrug) ([5]; oral): 14900 ± 5300 ng/mL
oral bioavailability as gabapentin (F) [5]: 49.1±6.8%
fraction of prodrug absorbed intact following oral administration [2]: about 60%
oral bioavailability of gabapentin provided by prodrug ([2]; oral dosing of prodrug): about 53%
% of prodrug surviving intact [3]: 79%
oral bioavailability (F) as gabapentin ([4]; oral 25 mg/kg (or 25 mg-equivalents of gabapentin per kg) vs intravenous gabapentin): 53%
maximum plasma concentration (Cmax) of gabapentin ([4]; single oral dose 25 mg/kg (or 25 mg-equivalents of gabapentin per kg)): 6100 ng/mL
Cmax for prodrug (Cmax PD) in plasma [4]: 103000 ng/mL
area under the gabapentin plasma concentration vs. time curve relative to colonic administration of gabapentin itself [6]: > 3 fold
maximum plasma concentration of gabapentin relative to colonic administration of gabapentin itself [6]: > 3 fold

NCC1(CC(=O)O)CCCCC1 [gabapentin]
increase in gabapentin exposure (as measured by AUC) for a 7.5-fold increase in dose [1]: 3.2 fold
AUC ([7]; 10 mg/kg): 32100 ± 10400 ng·h/mL
Cmax ([7]; 10 mg/kg): 3700 ± 1600 ng/mL
bioavailability ([7]; 10 mg/kg): 53.9 ± 17.3%
AUC ([7]; 75 mg/kg): 102000 ± 4900 ng·h/mL
Cmax ([7]; 75 mg/kg): 10800 ± 1300 ng/mL
bioavailability ([7]; 75 mg/kg): 22.9 ± 1.1%
oral bioavailability ([8]; dose of 300 mg): about 60%
oral bioavailability ([8]; dose of 1600 mg): about 35%
Cmax [4, 11]: 10300 ng/mL
half-life [4, 11]: 2.4 ± 0.5 h

CC(C)C[C@H](CNC(=O)[C@@H](N)Cc1ccc(Br)cc1)CC(=O)O [compound 5, L-4-Bromophenylalanine-Pregabalin]
PEPT-specific current, % of Imax for Gly-Sar [9]: at least 5 % of Imax for Gly-Sar
PEPT-specific current, % of Imax for Gly-Sar [10]: at least 5 % of Imax for Gly-Sar

N[C@@H](Cc1cccc2ccccc12)C(=O)NCC1(CC(=O)O)CCCCC1 [1l, L-1-Naphthylalanine-Gabapentin]
% of prodrug surviving intact [3]: 29%
Cmax for prodrug (Cmax PD) in plasma [4]: 500 ng/mL

L-Tyrosine-(O-2-Bromobenzyloxycarbonyl)-Gabapentin [4d]
% of prodrug surviving intact [3]: 3%

N[C@@H](Cc1ccc(C(F)(F)F)cc1)C(=O)NCC1(CC(=O)O)CCCCC1 [1aa, L-4-Trifluoromethylphenylalanine-Gabapentin]
% of prodrug surviving intact [3]: 97%
Cmax for prodrug (Cmax PD) in plasma [4]: 30000 ng/mL

N#Cc1cccc(C[C@H](N)C(=O)NCC2(CC(=O)O)CCCCC2)c1 [1al, L-3-Cyanophenylalanine-Gabapentin]
% of prodrug surviving intact [3]: 46%
Cmax for prodrug (Cmax PD) in plasma [4]: 600 ng/mL
